US20250018019A1, “TREATMENT OF INTERFERON DRIVEN INFLAMMATION” (The Provost, Fellows, Foundation Scholars and the other …, priority 2023, published 2025)

Columns and labels:
Format in all cases: cell-based, mouse
[1] = system: BMDMs; test: Stable isotope-assisted tracing (15N2-glutamine) in BMDMs; conditions: 15N2-glutamine tracing, LPS-treated BMDMs, LPS 4 h
Method: All compounds used DMSO as a vehicle except for 4-hydroxy tamoxifen (EtOH), NAC (PBS), and AOAA for tracing experiments (Media). LPS was used at a concentration of 100 ng/ml for indicated timepoints (2, 3, 4, 6, 8, 24, 48 h). FHIN1 (10 or 20 μM), MMF (50 or 100 μM), DMF (25 μM), AOAA (5 mM), oligomycin (10 μM), CCCP (50 μM) NAC (1 mM), and IMT1 (10 μM) pre-treatments were performed for 3 h prior the addition of LPS. Cells were treated with valinomycin (10 nM) 15 mins before LPS stimulation. Anti-CD210 or IgG control (10 μg/ml) antibodies were added to cells 1 h prior to LPS stimulation. Recombinant mouse IL-10 protein (100 ng/ml) was added to cells at the same time as LPS. Cells were treated with IFN-B1 (220 ng/ml) for 3 h. Cells were treated with C-178 (1 μM) 1 h prior to LPS stimulation or transfection with 2′3′-cGAMP (1.5 μg/ml) for 4 hrs to achieve cGAS-STING activation. […]
BMDMs (3 independent mice) were plated at 0.5×10^6 cells/well in 12-well plates in technical triplicate per condition, treated as indicated in glutamine-free DMEM supplemented with U-^13C-glutamine or ^15N2-glutamine, respectively. For ^13C- and ^15N-tracing analysis, the theoretical masses of ^13C and ^15N isotopes were calculated and added to a library of predicted isotopes in Tracefinder 5.0. […]

[2] = system: BMDMs; test: LC-MS steady-state metabolomics / fumarate levels in BMDMs; conditions: BMDMs, AOAA 5 mM pre-treatment, LPS 4 h
Method: (§1) All compounds used DMSO as a vehicle except for 4-hydroxy tamoxifen (EtOH), NAC (PBS), and AOAA for tracing experiments (Media). LPS was used at a concentration of 100 ng/ml for indicated timepoints (2, 3, 4, 6, 8, 24, 48 h). FHIN1 (10 or 20 μM), MMF (50 or 100 μM), DMF (25 μM), AOAA (5 mM), oligomycin (10 μM), CCCP (50 μM) NAC (1 mM), and IMT1 (10 μM) pre-treatments were performed for 3 h prior the addition of LPS. Cells were treated with valinomycin (10 nM) 15 mins before LPS stimulation. Anti-CD210 or IgG control (10 μg/ml) antibodies were added to cells 1 h prior to LPS stimulation. Recombinant mouse IL-10 protein (100 ng/ml) was added to cells at the same time as LPS. Cells were treated with IFN-B1 (220 ng/ml) for 3 h. Cells were treated with C-178 (1 μM) 1 h prior to LPS stimulation or transfection with 2′3′-cGAMP (1.5 μg/ml) for 4 hrs to achieve cGAS-STING activation. Cells were treated with ODN 2088 (1 μM) for 1 hr prior to LPS stimulation or transfection with CPG ODN 1826 (1.5 μg/ml) to achieve TLR9 activation. 3 different timepoints of 4-hydroxy tamoxifen (TAM) (600 nM or 2 μM) or EtOH treatment were performed-these are specified in the individual figure legends. For ‘48 h’ treatments EtOH/TAM was added on day 5 of 6 during the BMDM differentiation protocol. On day 6 they were plated with EtOH/TAM (left overnight) and treated the following day. For ‘72 h’ treatments EtOH/TAM was added on day […] of 6 during the BMDM differentiation protocol. On day 6 they were plated with EtOH/TAM (left overnight) and treated the following day. For ‘96 h’ treatments EtOH/TAM was added on day […] of 6 during the BMDM differentiation protocol. On day 6 they were plated with EtOH/TAM and treated 2 days later.
BMDMs (3 independent mice) were plated at 0.5×10^6 cells/well in 12-well plates in technical triplicate per condition, treated as indicated, snap frozen and stored at −80° C. For metabolomics on cytosolic fraction, BMDMs were plated at 10×10^6 cells/10 cm dish and rapid fractionation was performed as previously reported^16. Metabolite extraction solution (MES) (methanol/acetonitrile/water, 50:30:20 v/v/v) was added (0.5 mL per 1×10^6 cells) and samples were incubated for 15 min on dry ice. The resulting suspension was transferred to ice-cold microcentrifuge tubes. Samples were agitated for 20 min at 4° C. in a thermomixer and then incubated at −20° C. for 1 h. Samples were centrifuged at maximum speed for 10 min at 4° C. The supernatant was transferred into a new tube and centrifuged again at maximum speed for 10 min at 4° C. The supernatant was transferred to autosampler vials and stored at −80° C. prior to analysis by LC-MS.
HILIC chromatographic separation of metabolites was achieved using a Millipore Sequant ZIC-PHILIC analytical column (5 μm, 2.1×150 mm) equipped with a 2.1×20 mm guard column (both […] particle size) with a binary solvent system. Solvent A was 20 mM ammonium carbonate, 0.05% ammonium hydroxide; Solvent B was acetonitrile. The column oven and autosampler tray were held at 40° C. and 4° C., respectively. The chromatographic gradient was run at a flow rate of 0.200 mL/min as follows: 0-2 min: 80% B; 2-17 min: linear gradient from 80% B to 20% B; 17-17.1 min: linear gradient from 20% B to 80% B; 17.1-22.5 min: hold at 80% B. Samples were randomized and analysed with LC-MS in a blinded manner and the injection volume was 5 μl. Pooled samples were generated from an equal mixture of all individual samples and analysed interspersed at regular intervals within sample sequence as a quality control. Metabolites were measured with a Thermo Scientific Q Exactive Hybrid Quadrupole-Orbitrap Mass spectrometer (HRMS) coupled to a Dionex Ultimate 3000 UHPLC or with Vanquish Horizon UHPLC coupled to an Orbitrap Exploris 240 mass spectrometer (both Thermo Fisher Scientific) via a heated electrospray ionization source. […]

[3] = system: BMDMs; test: ELISA of cytokine release from BMDMs; conditions: BMDMs pre-treated 3 h, LPS 4 h
Method: as §1
Pre-designed silencer select siRNAs for Cgas (s103166), Tmem173 (s91058), Tlr3 (s100579), Tlr9 (s96268), As/(s99640), Tlr7 (s100720), Ddx58 (s106376), Ifih1 (s89787), Nrf2 (s70522), Atf4 (s62689) and negative control (4390843) were ordered from Thermo Fisher. siRNA sequences are given in Table S2. Cells were transfected with 50 nM siRNA using 5 μl lipofectamine RNAiMAX according to manufacturer's instructions (Thermo Fisher). Cells were transfected in medium without serum and antibiotics which was replaced with complete medium 8 hours later. Cells were subsequently left for at least a further 12 hours prior to treatment.
BMDMs were plated in the presence or absence of ultrapure ethidium bromide (100 ng/ml) and incubated for a further 6 days prior to treatment. Depletion of mtDNA was determined by genomic DNA isolation followed by qPCR using primers specific for areas of mitochondrial DNA (D-loop) and areas of mtDNA that are not inserted into nuclear DNA (Non-NUMT).
DuoSet ELISA kits for IL-1β, TNFα, IL-6, IL-10, and GDF15 were purchased from R&D Systems and were carried out according to the manufacturer's instructions with appropriately diluted cell supernatants added to each plate in duplicate or triplicate. IFN-β was determined using DuoSet ELISA kit from R&D Systems or Abcam (ab252363). Quantikine ELISA kit for IFN-β (R&D Systems) was used for determination of IFN-β concentration in serum samples and from human cells, and these were also carried out according to the manufacturer's instructions. Absorbance at 450 nm was quantified using a FLUOstar Optima plate reader. Corrected absorbance values were calculated by subtracting the background absorbance, and cytokine concentrations were subsequently obtained by extrapolation from a standard curve plotted on GraphPad Prism 9.2.0.

With NOCC(=O)O [AOAA, aminooxyacetic acid] as the compound, how does the “contribution of glutamine nitrogen to aspartate, asparagine, arginine and citrulline” value [1] read?
Its value is “completely prevented”.

And the “aspartate, asparagine, argininosuccinate levels following LPS stimulation” value [2]?
Its value is “reduced”.

What about the “fumarate levels following LPS stimulation” value [2] of the same compound?
The value was “reduced”.

What about the IL-10 release [3] of the same compound?
Its IL-10 release is “modestly increased”.

And the TNF-α release [3]?
Its TNF-α release is “reduced”.
